Assay [1] has as its system Experimental Autoimmune Encephalomyelitis. The conditions noted are these: various animal species; cited from earlier work.
The next assay concerns multiple sclerosis. The conditions noted are these: cited from earlier work.
Assay [2] deals with LNCs extracted from mice immunized with Poly-YAK (YB106). The experiment in a line: Ex-vivo potency assay: immunization with Poly-YAK (YB106), in-vitro stimulation of LNCs, IL-2 ELISA. Type of assay: cell-based, mouse. The conditions noted are these: specificity samples as in-vitro stimulators. The source says:
The present inventors developed an ex-vivo biological potency assay to determine the relative potency of GA based on effecting the first stimulus by immunizing mice in-vivo with Poly-YAK (also referred to as activation), and the second stimulus by in-vitro stimulation (also referred to as stimulation) with GA. The assay is composed of 6 major steps depicted in FIG. 1.
Briefly, mice are immunized with a pre-determined amount of Poly-YAK (YB106), mixed 1:1 with CFA (step 1). Eight to ten days later, the mice are sacrificed and draining lymph nodes are harvested. Lymph node cells (LNCs) are extracted from the lymph nodes and counted (step 2). […] The Level of IL-2 secretion from the cells into the culture media is determined by a commercial IL-2 ELISA (step 4).
In order to determine the relative potency of a tested batch, IL-2 secretion by the LNCs incubated with the tested batch samples is compared to the IL-2 secretion by the LNCs incubated with RS samples (step 5). Parallelism of the RS and tested batch curves and potency of the tested batch are determined accordingly (step 6). […]
Lymph node cells (LNCs) extraction—The primary culture of LNCs was prepared 8 to 10 days following immunization. […] The cells were then collected in 10-20 ml RPMI or AIM-V complete medium and counted by hemocytometer using Erythrosine B (Sigma, cat no. E9259). […]

Consider two substances from patent publication US20190025285A1, “METHODS OF DETERMINING RELATIVE POTENCY OF GLATIRAMER ACETATE AND USE THEREOF IN PREPARING A BATCH OF GLATIRAMER ACETATE AS ACCEPTABLE FOR PHARMACEUTICAL USE” (InSight Biopharmaceutical Ltd., priority 2015, published 2019).

Consider “L-glutamic acid polymer with L-alanine, L-lysine and L-tyrosine, acetate (salt) [GA]”, for which the “suppression of EAE” value in assay [1] is listed as “suppress Experimental Autoimmune Encephalomyelitis”. Besides, the “total number of enhancing lesions as measured by MRI” value with multiple sclerosis (MS patients, 20 mg/day subcutaneous dose) is “reduce the total number of enhancing lesions”. Besides, the frequency of relapses entry in the assay with multiple sclerosis (relapsing-remitting MS clinical trials) is given as “reduce the frequency of relapses”.
Regarding “MBP peptide (87-99): Myelin Basic Protein peptide 87-99 (BACHEM H-1964), negative control (SRPHLIRLFSRDA; UniProt P02686 87-99, looked up, fragment)”, the “IL-2 secretion response pattern in comparison to RS” value in assay [2] is given as “did not induce IL-2 secretion response”.
